Data as given in ChEMBL document CHEMBL1138481, “Compounds binding to the S2-S3 pockets of thrombin” (J Med Chem, 2009).

How the values were obtained:
[1] = Inhibition of human alpha thrombin by chromogenic substrate enzyme assay
[2] = Inhibition of human alpha thrombin by surface plasmon resonance assay

Compound | IC50 [1] | Kd [2]
O=C(NCc1cccs1)[C@@H]1CCCN1C(=O)Cc1ccc2c(c1)OCO2 | > 400 µM | 250 µM
CNC(=O)[C@@H]1CCCN1C(=O)CC1CCCCC1 | > 400 µM | > 1000 µM
COCCNC(=O)[C@@H]1CCCN1C(=O)CCc1ccc(Cl)cc1 | > 400 µM | 620 µM
CCCNC(=O)[C@@H]1CCCN1C(=O)[C@H](N)Cc1ccc(Cl)cc1 | 210 µM | 45 µM
CCCNC(=O)[C@@H]1CCCN1C(=O)[C@H](N)C(c1ccccc1)c1ccccc1 | 18 µM | –
COCCNC(=O)[C@@H]1CCCN1C(=O)[C@H](N)C(c1ccccc1)c1ccccc1 | 89 µM | 6.8 µM
CCCNC(=O)[C@@H]1CCCN1C(=O)CCc1ccc(Cl)cc1 | > 400 µM | > 1000 µM
CC(C)CNC(=O)[C@@H]1CCCN1C(=O)[C@H](N)C1CCCCC1 | 230 µM | 49 µM
N[C@@H](C(=O)N1CCC[C@H]1C(=O)NCC1CCCCC1)C1CCCCC1 | 20 µM | 9 µM
CNC(=O)[C@@H]1CCCN1C(=O)CC(c1ccccc1)c1ccccc1 | > 400 µM | > 1000 µM
COCCNC(=O)[C@@H]1CCCN1C(=O)CC1CCCCC1 | > 400 µM | > 1000 µM
CNC(=O)[C@@H]1CCCN1C(=O)CC1(O)c2ccccc2-c2ccccc21 | > 400 µM | > 1000 µM
COCCNC(=O)[C@@H]1CCCN1C(=O)CC1(O)c2ccccc2-c2ccccc21 | > 400 µM | 750 µM
CNC(=O)[C@@H]1CCCN1C(=O)Cc1ccc2c(c1)OCO2 | > 400 µM | > 1000 µM
COCCNC(=O)[C@@H]1CCCN1C(=O)[C@H](N)Cc1ccc(Cl)cc1 | > 400 µM | 140 µM
N[C@H](Cc1ccc(Cl)cc1)C(=O)N1CCC[C@H]1C(=O)NCc1cccs1 | 13 µM | 2.2 µM
CNC(=O)[C@@H]1CCCN1C(=O)[C@H](NS(=O)(=O)Cc1ccccc1)C1CCCCC1 | 170 µM | 35 µM
COCCNC(=O)[C@@H]1CCCN1C(=O)[C@H](O)C1CCCCC1 | > 400 µM | > 1000 µM

Compound | IC50 [1] | Kd [2]
CCCNC(=O)[C@@H]1CCCN1C(=O)CC(c1ccccc1)c1ccccc1 | > 400 µM | 270 µM
O=C(NCc1cccs1)[C@@H]1CCCN1C(=O)CC(c1ccccc1)c1ccccc1 | 120 µM | 34 µM
N[C@@H](C(=O)N1CCC[C@H]1C(=O)NCc1cccs1)C(c1ccccc1)c1ccccc1 | 1.6 µM | 0.27 µM
CNC(=O)[C@@H]1CCCN1C(=O)[C@H](N)C1CCCCC1 | > 400 µM | 790 µM
O=C(NCc1cccs1)[C@@H]1CCCN1C(=O)CCc1ccc(Cl)cc1 | > 400 µM | 700 µM
CCCNC(=O)[C@@H]1CCCN1C(=O)Cc1ccc2c(c1)OCO2 | > 400 µM | > 1000 µM
O=C(NCc1cccs1)[C@@H]1CCCN1C(=O)CC1(O)c2ccccc2-c2ccccc21 | 49 µM | 23 µM
N[C@@H](C(=O)N1CCC[C@H]1C(=O)NCc1cccs1)C1CCCCC1 | 4.2 µM | 1.1 µM
CCCNC(=O)[C@@H]1CCCN1C(=O)[C@H](N)C1CCCCC1 | 120 µM | 27 µM
COCCNC(=O)[C@@H]1CCCN1C(=O)[C@H](N)C1CCCCC1 | > 400 µM | 110 µM
CNC(=O)[C@@H]1CCCN1C(=O)[C@H](N)Cc1ccc(Cl)cc1 | > 400 µM | 550 µM
O=C(NCc1cccs1)[C@@H]1CCCN1C(=O)CC1CCCCC1 | > 400 µM | 1000 µM
CCCNC(=O)[C@@H]1CCCN1C(=O)CC1CCCCC1 | > 400 µM | > 1000 µM
CNC(=O)[C@@H]1CCCN1C(=O)[C@H](N)C(c1ccccc1)c1ccccc1 | 230 µM | 38 µM
CCCNC(=O)[C@@H]1CCCN1C(=O)CC1(O)c2ccccc2-c2ccccc21 | 380 µM | 99 µM
COCCNC(=O)[C@@H]1CCCN1C(=O)Cc1ccc2c(c1)OCO2 | > 400 µM | > 1000 µM
CNC(=O)[C@@H]1CCCN1C(=O)CCc1ccc(Cl)cc1 | > 400 µM | > 1000 µM
COCCNC(=O)[C@@H]1CCCN1C(=O)CC(c1ccccc1)c1ccccc1 | > 400 µM | > 1000 µM
